From publication PMC5517430, “2,3,7,8-Tetrachlorodibenzo-p-dioxin (TCDD)-elicited effects on bile acid homeostasis: Alterations in biosynthesis, enterohepatic circulation, and microbial metabolism” (Scientific Reports, 2017)

Tests used:
Slc10a2 = assay: Ileal epithelium RNA-Seq differential gene expression (fold change, P1(t), ED50, BMD, BMDL); type: in vivo, mouse; set-up: key to Cyp3a44 P1(t)_30: statistical P1(t) value; differentially expressed if ≥ 0.8; conditions: C57BL/6, mouse, ileal epithelium, oral; male mice, TCDD every 4 d for 28 d
Description: (§1) Frozen ileal epithelium scrapings and liver samples were homogenized in TRIzol (Ambion, Waltham, MA) using a Mixer Mill 300 tissue homogenizer (Retsch, Germany) and total RNA was isolated as previously described. RNA was quantified using a Nano-drop spectrophotometer (Thermo Scientific, Wilmington, DE) at 260 nm, and purity was assessed using the A260/A280 ratio and the Caliper LabChip GX (Perkin Elmer, Waltham, MA).
(§2) Dose-dependent gene expression was examined using RNA-Seq performed at the MSU Research Technology Support Facility (RTSF) Genomics Core (rtsf.natsci.msu.edu/genomics). Ileal libraries from three independent biological replicates (n = 3) were prepared using the Ovation Mouse RNA-Seq System 1–16 sample preparation kit (NuGen, San Carlos, CA), with an additional DNase step. Libraries were quantified and sequenced as previously described, using a read depth of ~30 M per sample[33], [67]. Quality was determined using FASTQC v0.11.3 and adaptor sequences were removed using Trimmomatic v0.33. Reads were mapped to the mouse reference genome (GRCm38 release 81) using Bowtie2 v2.2.6 and TopHat2 v2.1.0. Alignments were converted to SAM format using SAMTools v1.2.0. For TCDD-mediated differential gene expression, fold changes were calculated relative to vehicle controls. Hepatic RNA-Seq analysis was previously published. Genes were considered differentially expressed if |fold change| ≥ 1.5 and statistical P1(t) value ≥ 0.8 at one or more doses. RNA-Seq datasets for the ileal epithelium and liver were deposited in the Gene Expression Omnibus (GEO; accession number GSE89430 and GSE87519, respectively). The RNA-Seq results (fold changes, P1(t) values) for each gene discussed in the manuscript have been compiled in Supplementary Table S1. […] Estimation of benchmark dose (BMD) and BMD lower confidence limit (BMDL) was performed using BMDExpress[69] as previously described, and has been included in Supplementary Table S1.

Slc51a = assay: as above; type: in vivo, mouse; set-up: key to Cyp3a44 P1(t)_30: statistical P1(t) value; differentially expressed if ≥ 0.8; conditions: C57BL/6, mouse, ileal epithelium, oral; male mice, TCDD every 4 d for 28 d
Description: as §1, §2

ileal gene expression = assay: as above; type: in vivo, mouse; set-up: key to Cyp3a44 P1(t)_30: statistical P1(t) value; differentially expressed if ≥ 0.8
Description: as §1, §2

AhR = assay: Hepatic AhR ChIP-Seq (AhR genomic enrichment); type: in vivo, mouse
Description: Putative dioxin response elements (pDREs) with matrix similarity scores (MSS) ≥ 0.856 were previously identified. ChIP-Seq was previously performed on liver samples from male C57BL/6 mice 2 h after a single bolus oral gavage of 30 µg/kg TCDD[33], [70]. Briefly, cross-linked DNA was immunoprecipitated with either rabbit IgG or anti-AhR (H-211, sc-5579; Santa Cruz, CA). Libraries were prepared using the MicroPlex kit (Diagenode), pooled, and sequenced at a depth of a ~30 M on an Illumina HiSeq 2500 at the MSU RTSF Genomics Core. Reads were mapped to the mouse reference genome (GRCm38 release 81) using Bowtie 2.0.0 and alignments converted to SAM format using SAMTools v0.1.2. Normalization and peak calling was performed using CisGenome[71], by comparing IgG control and AhR enriched samples (n = 5) using a bin size (−b) of 25 and boundary refinement resolution (−bw) of 1 with default parameters.

[1] = tested on: hepatic taurine and glycine; set-up: method as in PMID 26582802; conditions: female mice, cited from earlier work
[2] = set-up: method as in PMID 6138222; conditions: mice; cited from earlier work
[3] = ileum, 0.01 µg/kg TCDD, relative to vehicle control
[4] = ileum, 0.03 µg/kg TCDD, relative to vehicle control
[5] = ileum, 0.1 µg/kg TCDD, relative to vehicle control
[6] = ileum, 0.3 µg/kg TCDD, relative to vehicle control
[7] = ileum, 1 µg/kg TCDD, relative to vehicle control
[8] = ileum, 3 µg/kg TCDD, relative to vehicle control
[9] = ileum, 10 µg/kg TCDD, relative to vehicle control
[10] = ileum, 30 µg/kg TCDD, relative to vehicle control
[11] = male mice, TCDD every 4 d for 28 d
[12] = male mouse liver, 2 h after single oral gavage of 30 µg/kg TCDD

SMILES: Clc1cc2c(cc1Cl)Oc1cc(Cl)c(Cl)cc1O2 [TCDD, 2,3,7,8-tetrachlorodibenzo-p-dioxin]
- fold induction at 28 d (Slc10a2): 1.6
- fold induction at 28 d (Slc51a): 1.5
- Cyp3a44 BMD (ileal gene expression; ileum): 36.49 µg/kg TCDD
- Cyp3a44 BMDL (ileal gene expression; ileum): 18.80 µg/kg TCDD
- Cyp3a44 Differentially Expressed? (ileal gene expression; ileum): YES
- Cyp3a44 ED50 (ileal gene expression; ileum): Not sigmoidal
- Fgf15 BMD (ileal gene expression; ileum): No model fit
- Fgf15 BMDL (ileal gene expression; ileum): No model fit
- Fgf15 Differentially Expressed? (ileal gene expression; ileum): YES
- Fgf15 ED50 (ileal gene expression; ileum): 9.00 µg/kg TCDD
- Slc10a2 (ASBT or IBAT) BMD (ileal gene expression; ileum): 5.66 µg/kg TCDD
- Slc10a2 (ASBT or IBAT) BMDL (ileal gene expression; ileum): 0.69 µg/kg TCDD
- Slc10a2 (ASBT or IBAT) Differentially Expressed? (ileal gene expression; ileum): YES
- Slc10a2 (ASBT or IBAT) ED50 (ileal gene expression; ileum): 0.98 µg/kg TCDD
- Slc51a (OSTα) BMD (ileal gene expression; ileum): No model fit
- Slc51a (OSTα) BMDL (ileal gene expression; ileum): No model fit
- Slc51a (OSTα) Differentially Expressed? (ileal gene expression; ileum): YES
- Slc51a (OSTα) ED50 (ileal gene expression; ileum): 0.89 µg/kg TCDD
- Cyp3a44 P1(t)_0.01 (ileal gene expression; ileum, 0.01 µg/kg TCDD): -0.1316
- Cyp3a44 FC_0.01 (ileal gene expression; [3]): 0.91
- Fgf15 FC_0.01 (ileal gene expression; [3]): 0.81
- Slc10a2 (ASBT or IBAT) FC_0.01 (ileal gene expression; [3]): 0.93
- Slc51a (OSTα) FC_0.01 (ileal gene expression; [3]): 0.98
- Slc51b (OSTβ) FC_0.01 (ileal gene expression; [3]): 0.88
- Cyp3a44 P1(t)_0.03 (ileal gene expression; ileum, 0.03 µg/kg TCDD): 0.0640
- Cyp3a44 FC_0.03 (ileal gene expression; [4]): 0.80
- Fgf15 FC_0.03 (ileal gene expression; [4]): 0.63
- Slc10a2 (ASBT or IBAT) FC_0.03 (ileal gene expression; [4]): 0.93
- Slc51a (OSTα) FC_0.03 (ileal gene expression; [4]): 0.96
- Slc51b (OSTβ) FC_0.03 (ileal gene expression; [4]): 0.87
- Cyp3a44 P1(t)_0.1 (ileal gene expression; ileum, 0.1 µg/kg TCDD): -0.1090
- Cyp3a44 FC_0.1 (ileal gene expression; [5]): 0.89
- Fgf15 FC_0.1 (ileal gene expression; [5]): 0.85
- Slc10a2 (ASBT or IBAT) FC_0.1 (ileal gene expression; [5]): 0.92
- Slc51a (OSTα) FC_0.1 (ileal gene expression; [5]): 0.98
- Slc51b (OSTβ) FC_0.1 (ileal gene expression; [5]): 0.88
- Cyp3a44 P1(t)_0.3 (ileal gene expression; ileum, 0.3 µg/kg TCDD): 0.6027
- Cyp3a44 FC_0.3 (ileal gene expression; [6]): 0.61
- Fgf15 FC_0.3 (ileal gene expression; [6]): 1.12
- Slc10a2 (ASBT or IBAT) FC_0.3 (ileal gene expression; [6]): 0.74
- Slc51a (OSTα) FC_0.3 (ileal gene expression; [6]): 1.07
- Slc51b (OSTβ) FC_0.3 (ileal gene expression; [6]): 0.88
- Cyp3a44 P1(t)_1 (ileal gene expression; ileum, 1 µg/kg TCDD): 0.5083
- Cyp3a44 FC_1 (ileal gene expression; [7]): 0.65
- Fgf15 FC_1 (ileal gene expression; [7]): 1.50
- Slc10a2 (ASBT or IBAT) FC_1 (ileal gene expression; [7]): 1.19
- Slc51a (OSTα) FC_1 (ileal gene expression; [7]): 1.30
- Slc51b (OSTβ) FC_1 (ileal gene expression; [7]): 0.90
- Cyp3a44 P1(t)_3 (ileal gene expression; ileum, 3 µg/kg TCDD): -0.1130
- Cyp3a44 FC_3 (ileal gene expression; [8]): 1.12
- Fgf15 FC_3 (ileal gene expression; [8]): 1.99
- Slc10a2 (ASBT or IBAT) FC_3 (ileal gene expression; [8]): 1.22
- Slc51a (OSTα) FC_3 (ileal gene expression; [8]): 1.46
- Slc51b (OSTβ) FC_3 (ileal gene expression; [8]): 0.95
- Cyp3a44 P1(t)_10 (ileal gene expression; ileum, 10 µg/kg TCDD): 0.9033
- Cyp3a44 FC_10 (ileal gene expression; [9]): 0.46
- Fgf15 FC_10 (ileal gene expression; [9]): 0.51
- Slc10a2 (ASBT or IBAT) FC_10 (ileal gene expression; [9]): 1.38
- Slc51a (OSTα) FC_10 (ileal gene expression; [9]): 1.34
- Slc51b (OSTβ) FC_10 (ileal gene expression; [9]): 0.93
- Cyp3a44 P1(t)_30 (ileal gene expression; ileum, 30 µg/kg TCDD): 0.7035
- Cyp3a44 FC_30 (ileal gene expression; [10]): 0.58
- Fgf15 FC_30 (ileal gene expression; [10]): 0.10
- Slc10a2 (ASBT or IBAT) FC_30 (ileal gene expression; [10]): 1.59
- Slc51a (OSTα) FC_30 (ileal gene expression; [10]): 1.15
- Slc51b (OSTβ) FC_30 (ileal gene expression; [10]): 0.79
- Cyp3a44 ileal expression, fold repression (ileal gene expression; [11]): 2.2 fold
- Slc51b ileal expression (ileal gene expression; [11]): unchanged
- Slc6a6 (TAUT) AhR Binding? (AhR; liver): YES
- Slc10a1 (NTCP or LBAT) AhR Binding? (AhR; liver): YES
- Slco2b1 (OATP2B1) AhR Binding? (AhR; liver): YES
- Soat1 AhR Binding? (AhR; liver): YES
- Soat2 AhR Binding? (AhR; liver): YES
- Sqle AhR Binding? (AhR; liver): YES
- Srebf2 AhR Binding? (AhR; liver): YES
- Tm7sf2 AhR Binding? (AhR; liver): YES
- AhR binding within Cyp8b1, fold enrichment (AhR; [12]): 2.2 fold
- AhR genomic binding at Cyp7a1, fold enrichment (AhR; [12]): 2.3 fold
- AhR genomic binding at the Hmgcr loci, fold increase (AhR; [12]): 10.3 fold
- Hepatic taurine level, max fold increase ([1]; p = 0.05): 1.4 fold
- Hepatic glycine level, max fold increase ([1]; p = 0.10): 20.3 fold
- Half-life [2]: 190 to 288 h
